Values joined by “and” are separate entries in the source; they are usually repeats but may differ in a detail not shown here. Equal entries are not always repeated.
Biological target: T1, mut-GVHH PmIleRS2 (Priestia megaterium, UniProt A0A0B6AVD3, G56H/H54G)
T1 sequence (A0A0B6AVD3 1-1032 H54G/G56H): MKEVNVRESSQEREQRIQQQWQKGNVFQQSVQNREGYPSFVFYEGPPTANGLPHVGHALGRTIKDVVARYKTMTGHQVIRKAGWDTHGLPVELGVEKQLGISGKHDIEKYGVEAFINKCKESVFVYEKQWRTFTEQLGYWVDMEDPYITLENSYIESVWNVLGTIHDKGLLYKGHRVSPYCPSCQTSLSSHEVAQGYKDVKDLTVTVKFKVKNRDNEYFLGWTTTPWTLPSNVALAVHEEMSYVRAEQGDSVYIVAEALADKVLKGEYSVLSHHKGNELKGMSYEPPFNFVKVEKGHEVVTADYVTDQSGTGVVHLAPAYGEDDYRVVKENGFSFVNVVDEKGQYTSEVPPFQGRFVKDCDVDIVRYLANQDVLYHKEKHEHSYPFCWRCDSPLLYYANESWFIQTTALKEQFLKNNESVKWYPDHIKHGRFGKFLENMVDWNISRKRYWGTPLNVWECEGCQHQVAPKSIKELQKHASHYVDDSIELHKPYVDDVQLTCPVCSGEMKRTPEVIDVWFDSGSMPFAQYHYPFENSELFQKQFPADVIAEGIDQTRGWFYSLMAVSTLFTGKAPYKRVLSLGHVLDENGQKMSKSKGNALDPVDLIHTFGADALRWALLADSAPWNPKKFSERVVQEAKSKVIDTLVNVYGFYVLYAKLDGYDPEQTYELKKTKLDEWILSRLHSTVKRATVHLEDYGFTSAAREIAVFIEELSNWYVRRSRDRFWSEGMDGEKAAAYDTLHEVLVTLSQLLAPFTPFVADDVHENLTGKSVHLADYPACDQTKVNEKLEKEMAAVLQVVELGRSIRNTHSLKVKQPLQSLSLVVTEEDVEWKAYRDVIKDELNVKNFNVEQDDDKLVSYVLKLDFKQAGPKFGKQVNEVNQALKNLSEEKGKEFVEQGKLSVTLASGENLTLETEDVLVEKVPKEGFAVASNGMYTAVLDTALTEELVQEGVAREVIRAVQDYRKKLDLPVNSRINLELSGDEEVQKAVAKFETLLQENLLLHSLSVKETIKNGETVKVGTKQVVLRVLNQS
Assay: ATP-PPi exchange assay, mupirocin inhibition of amino acid activation
Type: biochemical, Priestia (Bacillus) megaterium
Procedure: L-Ile and ATP concentrations ranged from 1/10 KM to 10 KM values. When measuring the KI towards one of the substrates, the other was held in saturation (concentrations at least 10 KM). The aliquots of the reaction mixture (1–2.5 μl) were quenched in 2 volumes of 500 mM NaOAc pH = 4.5, 0.1% SDS, and formed ^32P-ATP was separated from the remaining ^32P-PPi by thin-layer chromatography on Polygram CEL 300 PEI UV254 TLC plates (Macherey-Nagel, cat: 801063) using 750 mM KH2PO4 pH=3.5, 4 M urea buffer. Visualization and quantification of the signals was performed using a Typhoon Phosphoimager 5 (General Electric) and accompanying ImageQuant™ TL software (SV: 10.2). The kinetic constants were determined using a global fit option of the competitive inhibition model of GraphPad Prism 6 software (SV: 6.01). All experiments were performed in triplicates. The kcat was determined by dividing the maximal velocity, VM, with the used enzyme concentration. […]
variable substrate (ATP or Ile) was varied in the range of 0.1 KM to 10 KM. The other substrate (Ile or ATP) was kept in excess at 5 to 10 KM. Data were globally fitted to the competitive inhibition model using GraphPad prism 6.01 for Windows software. The values represent the average value ± SD of three independent experiments. Source data are provided as a Source Data file.

`C/C(=C\C(=O)OCCCCCCCCC(=O)O)C[C@@H]1OC[C@H](C[C@@H]2O[C@H]2[C@@H](C)[C@H](C)O)[C@@H](O)[C@H]1O` [mupirocin] was tested, and the Ki (KI (MUP)ATP, amino acid activation assay, ATP as variable substrate, average ± SD of three independent experiments) was 480 ± 10 µM, the Ki (KI (MUP)Ile, amino acid activation step, ATP/PPi exchange assay, Ile varied, ATP saturating, average ± SD of three independent experiments) was 460 ± 10 µM and the Ki (KI, single replicates, mupirocin inhibition towards Ile, GraphPad Prism output, Repl1-Repl3) was 470 µM and 480 µM and 420 µM. For the same compound, the vo (c (mupirocin) = 0.5 mM, c (Ile) 100.0 μM, Replica 1) was 0.01849 mM/min, the vo (c (mupirocin) = 0.5 mM, c (Ile) 100.0 μM, Replica 2) was 0.01948 mM/min and the vo (c (mupirocin) = 0.5 mM, c (Ile) 250.0 μM, Replica 1) was 0.03623 mM/min. For the same compound, the vo (c (mupirocin) = 0.5 mM, c (Ile) 250.0 μM, Replica 2) was 0.03682 mM/min, the vo (c (mupirocin) = 0.5 mM, c (Ile) 250.0 μM, Replica 3) was 0.03653 mM/min and the vo (c (mupirocin) = 0.5 mM, c (Ile) 500.0 μM, Replica 1) was 0.05582 mM/min. It also gave a vo (c (mupirocin) = 0.5 mM, c (Ile) 500.0 μM, Replica 2) of 0.05871 mM/min, a vo (c (mupirocin) = 0.5 mM, c (Ile) 500.0 μM, Replica 3) of 0.05786 mM/min and a vo (c (mupirocin) = 0.5 mM, c (Ile) 1000.0 μM, Replica 1) of 0.07169 mM/min. For the same compound, the vo (c (mupirocin) = 0.5 mM, c (Ile) 1000.0 μM, Replica 2) was 0.07587 mM/min, the vo (c (mupirocin) = 0.5 mM, c (Ile) 1000.0 μM, Replica 3) was 0.07605 mM/min and the vo (c (mupirocin) = 0.5 mM, c (Ile) 1500.0 μM, Replica 1) was 0.08634 mM/min. It also gave a vo (c (mupirocin) = 0.5 mM, c (Ile) 1500.0 μM, Replica 2) of 0.08442 mM/min, a vo (c (mupirocin) = 0.5 mM, c (Ile) 1500.0 μM, Replica 3) of 0.08419 mM/min and a vo (c (mupirocin) = 1.0 mM, c (Ile) 100.0 μM, Replica 1) of 0.01236 mM/min. It also gave a vo (c (mupirocin) = 1.0 mM, c (Ile) 100.0 μM, Replica 2) of 0.01246 mM/min, a vo (c (mupirocin) = 1.0 mM, c (Ile) 100.0 μM, Replica 3) of 0.01228 mM/min and a vo (c (mupirocin) = 1.0 mM, c (Ile) 250.0 μM, Replica 1) of 0.0294 mM/min. It also gave a vo (c (mupirocin) = 1.0 mM, c (Ile) 250.0 μM, Replica 2) of 0.02992 mM/min, a vo (c (mupirocin) = 1.0 mM, c (Ile) 250.0 μM, Replica 3) of 0.02794 mM/min and a vo (c (mupirocin) = 1.0 mM, c (Ile) 500.0 μM, Replica 1) of 0.04465 mM/min. The vo (c (mupirocin) = 1.0 mM, c (Ile) 500.0 μM, Replica 2) was 0.04713 mM/min, the vo (c (mupirocin) = 1.0 mM, c (Ile) 500.0 μM, Replica 3) was 0.04492 mM/min and the vo (c (mupirocin) = 1.0 mM, c (Ile) 1000.0 μM, Replica 1) was 0.06444 mM/min. For the same compound, the vo (c (mupirocin) = 1.0 mM, c (Ile) 1000.0 μM, Replica 2) was 0.06152 mM/min, the vo (c (mupirocin) = 1.0 mM, c (Ile) 1000.0 μM, Replica 3) was 0.06395 mM/min and the vo (c (mupirocin) = 1.0 mM, c (Ile) 1500.0 μM, Replica 1) was 0.07511 mM/min. For the same compound, the vo (c (mupirocin) = 1.0 mM, c (Ile) 1500.0 μM, Replica 2) was 0.07278 mM/min, the vo (c (mupirocin) = 1.0 mM, c (Ile) 1500.0 μM, Replica 3) was 0.07621 mM/min and the vo (c (mupirocin) = 2.5 mM, c (Ile) 100.0 μM, Replica 1) was 0.00609 mM/min. For the same compound, the vo (c (mupirocin) = 2.5 mM, c (Ile) 100.0 μM, Replica 2) was 0.00589 mM/min, the vo (c (mupirocin) = 2.5 mM, c (Ile) 100.0 μM, Replica 3) was 0.00628 mM/min and the vo (c (mupirocin) = 2.5 mM, c (Ile) 250.0 μM, Replica 1) was 0.01433 mM/min. The vo (c (mupirocin) = 2.5 mM, c (Ile) 250.0 μM, Replica 2) was 0.01642 mM/min, the vo (c (mupirocin) = 2.5 mM, c (Ile) 250.0 μM, Replica 3) was 0.01353 mM/min and the vo (c (mupirocin) = 2.5 mM, c (Ile) 500.0 μM, Replica 1) was 0.02701 mM/min. For the same compound, the vo (c (mupirocin) = 2.5 mM, c (Ile) 500.0 μM, Replica 2) was 0.02762 mM/min, the vo (c (mupirocin) = 2.5 mM, c (Ile) 500.0 μM, Replica 3) was 0.02637 mM/min and the vo (c (mupirocin) = 2.5 mM, c (Ile) 1000.0 μM, Replica 1) was 0.042 mM/min. The vo (c (mupirocin) = 2.5 mM, c (Ile) 1000.0 μM, Replica 2) was 0.04503 mM/min, the vo (c (mupirocin) = 2.5 mM, c (Ile) 1000.0 μM, Replica 3) was 0.03982 mM/min and the vo (c (mupirocin) = 2.5 mM, c (Ile) 1500.0 μM, Replica 1) was 0.05219 mM/min. It also gave a vo (c (mupirocin) = 2.5 mM, c (Ile) 1500.0 μM, Replica 2) of 0.055 mM/min, a vo (c (mupirocin) = 2.5 mM, c (Ile) 1500.0 μM, Replica 3) of 0.05194 mM/min and a vo (c (mupirocin) = 5.0 mM, c (Ile) 100.0 μM, Replica 1) of 0.00403 mM/min. The vo (c (mupirocin) = 5.0 mM, c (Ile) 100.0 μM, Replica 2) was 0.00438 mM/min, the vo (c (mupirocin) = 5.0 mM, c (Ile) 100.0 μM, Replica 3) was 0.00348 mM/min and the vo (c (mupirocin) = 5.0 mM, c (Ile) 250.0 μM, Replica 1) was 0.0082 mM/min. It also gave a vo (c (mupirocin) = 5.0 mM, c (Ile) 250.0 μM, Replica 2) of 0.00786 mM/min.
